According to paper PMC11083148, “Structure–Activity Relationship Studies on Highly Functionalized Pyrazole Hydrazones and Amides as Antiproliferative and Antioxidant Agents” (International Journal of Molecular Sciences, 2024):

How the values were obtained:
A549 = assay: MTT assay, antiproliferative activity; type: cell-based; settings: 48h; for activity at 10 µM: Homo sapiens, read-out: Mean Growth Percentage
Protocol: (§1) Pyrazole acylhydrazones 10–13 and amides 14–22 were tested by MTT assay to evaluate their antiproliferative and cytotoxicity properties against a panel of eight tumor cell lines and normal fibroblasts.
(§2) All reagents were purchased from EuroClone, Milan, Italy). The following cell lines were used for MTT assays: SKOV-3 (ovarian adenocarcinoma, ATCC, Manassas, VA, USA); MCF-7 (breast adenocarcinoma, Biologic Bank and Cell Factory, IRCCS Policlinico San Martino, Genoa, Italy); Hep-G2 (hepatocellular carcinoma, ATCC, Manassas, VA, USA); SK-MEL28 (skin melanoma, Biologic Bank and Cell Factory, IRCCS Policlinico San Martino, Genoa, Italy), GM-6114 (embryonic human fibroblast, ATCC, Manassas, VA, USA); MDA-MB231 (breast adenocarcinoma, Biologic Bank and Cell Factory, IRCCS Policlinico San Martino, Genoa, Italy); HeLa (cervical adenocarcinoma, Biologic Bank and Cell Factory, IRCCS Policlinico San Martino, Genoa, Italy); SK-BR3 (breast andenocarcinoma, Biologic Bank and Cell Factory, IRCCS Policlinico San Martino, Genoa, Italy); A549 (lung carcinoma, Biologic Bank and Cell Factory, IRCCS Policlinico San Martino, Genoa, Italy); HUVEC (Human Umbilical Vein Endothelial Cells, ATCC, Manassas, VA, USA). All cell lines were grown in their medium with 10% FBS, 2 mM Glutamine, and 1% penstrep and incubated at 37 °C in 5% CO2 in a humidified environment. The cell lines were plated in 96-well plates at an adequate number to reach 80–90% confluence at the end of the assay. 16 h after cell plating, a 10 mM DMSO stock solution of the compounds was diluted in growth medium and added at a final working concentration of 10 μM. After 48h of incubation, a 2 mg/mL PBS solution of MTT (3-(4,5-dimethyl-2-thiazolyl)-2,5-diphenyl-2H-tetrazolium bromide) was added (30 μL/well). After 4h, the supernatant was removed, and the Formazan precipitates were dissolved in DMSO (100 μL/well). The 96-well plates were incubated for 20 min, and absorbance was measured at 570 nm using a plate reader. The results are expressed as a percentage ratio over control samples (100%) in which the cells were incubated with the same amount of DMSO but without compounds. Each value is the mean of three independent experiments run in six replicates.

Hep-G2 = assay: MTT assay, antiproliferative activity; type: cell-based; settings: for Mean growth percentage at 10 µM: Homo sapiens, HepG2, 48h
Protocol: as §1, §2

MDA-MB231 = assay: MTT assay, antiproliferative activity; type: cell-based; settings: for Mean growth percentage at 10 µM: Homo sapiens, MDA-MB-231, 48h
Protocol: as §1, §2

SK-BR3 = assay: MTT assay, antiproliferative activity; type: cell-based; settings: for Mean growth percentage at 10 µM: Homo sapiens, SK-BR-3, 48h
Protocol: as §1, §2

HeLa = assay: MTT assay, antiproliferative activity; type: cell-based; settings: 10 µM, 48h; for activity at 10 µM: Homo sapiens, read-out: Mean Growth Percentage
Protocol: as §1, §2
(§3) Each IC50 value is the mean of three independent experiments run in duplicate.

MCF7 = assay: MTT assay, antiproliferative activity; type: cell-based; settings: 10 µM, 48h; for mean growth percentage (cell growth remaining vs control) at 10 µM: Homo sapiens
Protocol: as §1, §2, §3

SKMEL28 = assay: MTT assay, antiproliferative activity; type: cell-based; settings: 48h; for Mean growth percentage at 10 µM: Homo sapiens, SK-MEL-28, 10 µM
Protocol: as §1, §2, §3

SKOV3 = assay: MTT assay, antiproliferative activity; type: cell-based; settings: 48h; for Mean growth percentage at 10 µM: Homo sapiens, SK-OV-3, 10 µM
Protocol: as §1, §2, §3

GM-6114 = assay: MTT assay, cytotoxicity on normal fibroblasts; type: cell-based; settings: human, 48 h, 10 µM
washed platelets [1] = assay: Platelet aggregation (thrombin-induced, Born's method); type: cell-based; settings: Homo sapiens, 0.1 U/mL thrombin, mean ± SD, read-out: IC50 Aggregation inhibition
Protocol: (§4) The antioxidant properties of acylhydrazones 10–13 and pyrazolyl amides 14–22 were tested by evaluating their inhibition of platelet aggregation and ROS production (Figure 3, Table S1). In fact, human platelets could represent a fast and low-cost biological model to screen compounds as anticancer, anti-inflammatory, and antiaggregating agents. Moreover, ROS production inhibition, related to human platelet aggregation, could provide a good indication of the anti-inflammatory and antioxidant properties of the newly synthesized compounds [47, 50, 51, 52]. N-acetylcysteine (NAC) and acetyl salicylic acid (ASA) were used as reference drugs for antioxidant and antiaggregant activities, respectively.
(§5) Freshly drawn venous blood from healthy volunteers from “Centro Trasfusionale” (IRCCS Policlinico San Martino, Genoa, Italy) was collected into a 130 mM aqueous trisodium citrate anticoagulant solution (9:1). The donors claimed to not have taken drugs known to interfere with platelet function during the two weeks prior to blood collection and gave their informed consent. Whole blood was centrifuged at 100× g for 20 min to afford platelet-rich plasma that was then spun at 1100× g for 15 min. The obtained pellet was washed once with a pH 5.2 ACD solution (75 mM trisodium citrate, 42 mM citric acid, and 136 mM glucose), centrifuged at 1100× g for 15 min, and then re-suspended in pH 7.4 Hepes buffer (145 mM NaCl, 5 mM KCl, 1 mM MgSO4, 10 mM glucose, and 10 mM HEPES).
Thrombin was purchased from Sigma-Aldrich/Merck Millipore. A DMSO solution of compounds 10–22 was diluted in saline immediately before each experiment and added to the washed platelets (3.0 × 10^8/mL) at 37 °C. After 3 min, 0.1 U/mL thrombin was added, and platelet aggregation was quantified according to Born’s method using a Bio-Data Aggregometer (Bio-Data Corporation, Horsham, PA, USA). The IC50 values were calculated as detailed above.

washed platelets [2] = assay: ROS assay in platelets (DCFH-DA, thrombin-stimulated); type: cell-based, human; settings: 0.1 U/mL thrombin, mean ± SD, read-out: IC50 ROS production inhibition
Protocol: as §4, §5
2′,7′-Dichlorofluorescein diacetate (DCFH-DA) and thrombin were purchased from Sigma-Aldrich/Merck Millipore. DMSO solutions of 10–22 were diluted in saline immediately before each experiment. ROS production was quantified by DCFH-DA, a ROS-sensitive probe that yields, upon oxidation, the fluorescent adduct DCF that is trapped inside the cells. Briefly, washed platelets (1.0 × 10^8/mL), pre-incubated with saline solutions of 10–22 for 15 min at 37 °C, were stimulated by 0.1 U/mL thrombin. Incubation was stopped by cooling samples in an ice bath, and then samples were immediately analyzed in a Merck Millipore Bioscience Guava easyCyte flow cytometer (Merk Millipore, Burlington, MA, USA). The reported IC50 values represent the molar concentration of the compounds able to inhibit 50% of the maximal aggregation induced by the agonist and are calculated as the percentage inhibition of the maximal aggregation measured in the presence of the agent compared with the measure in a control sample containing saline, carried out under the same conditions. The IC50 values were extrapolated from nonlinear regression analysis of concentration–response curves (three points) using MS Excel software (Microsoft 365 suite). Each IC50 value is the mean of six independent experiments.

Compound	activity at 10 µM (A549)	Mean growth percentage at 10 µM (Hep-G2)	Mean growth percentage at 10 µM (MDA-MB231)	Mean growth percentage at 10 µM (SK-BR3)	activity at 10 µM (HeLa)	mean growth percentage (cell growth remaining vs control) at 10 µM (MCF7)	Mean growth percentage at 10 µM (SKMEL28)	Mean growth percentage at 10 µM (SKOV3)	Mean Growth Percentage (GM-6114)	IC50 (washed platelets [1])	IC50 (washed platelets [2]; Homo sapiens, Platelet)	also measured
CCOC(=O)c1c(NC(=O)c2c(OC)cccc2OC)nn(C)c1Nc1ccccc1 [compound 20, Ethyl 3-(2,6-dimethoxybenzamido)-1-methyl-5-(phenylamino)-1H-pyrazole-4-carboxylate]	70.8%	108%	124%	106%	111%	92.1%	83.6%	84.4%	64.71%	301 ± 24 µM	289 ± 27 µM	melting point: 158 to 160 °C
COc1ccc(/C=N/NC(=O)c2c(Nc3ccccc3)nn(C)c2N)cc1OC [12b, (E)-5-amino-N′-(3,4-dimethoxybenzylidene)-1-methyl-3-(phenylamino)-1H-pyrazole-4-carbohydrazide]	95.3%	92.7%	91.7%	94.2%	92.8%	101%	73.3%	98.6%	99.78%	187 ± 16 µM	106 ± 9 µM	melting point: 104 to 106 °C
COc1ccc(/C=N/NC(=O)c2c(N)n[nH]c2Nc2ccccc2)cc1 [10a, (E)-3-amino-N′-(4-methoxybenzylidene)-5-(phenylamino)-1H-pyrazole-4-carbohydrazide]	103%	115%	99.1%	95.5%	98.4%	95.1%	86.7%	104%	110.40%	204 ± 12 µM	111 ± 9 µM	melting point: 227 to 232 °C
N.N.[Cl][Pt][Cl] [CisPt, cisplatin, reference compound]	–	–	–	–	–	–	–	–	–	–	–	Mean Growth Percentage (A549; 10 µM): 59.09%; Mean Growth Percentage (Hep-G2; 10 µM, 48h): 38.07%; Mean Growth Percentage (MDA-MB231; 10 µM, 48h): 86.07%; Mean Growth Percentage (SK-BR3; 10 µM, 48h): 70.59%; Mean Growth Percentage (HeLa): 29.33%; Mean Growth Percentage (MCF7): 72.74%; Mean Growth Percentage (SKMEL28; 10 µM): 44.40%; Mean Growth Percentage (SKOV3; 10 µM): 36.83%
COc1ccc(/C=N/NC(=O)c2c(N)nn(C)c2Nc2ccccc2)cc1Oc1ccccc1 [11c, (E)-3-amino-N′-(4-methoxy-3-phenoxybenzylidene)-1-methyl-5-(phenylamino)-1H-pyrazole-4-carbohydrazide]	91.7%	113%	93.4%	83.1%	101%	84.5%	87.6%	110%	105.27%	841 ± 43 µM	148 ± 13 µM	–
COc1ccc(/C=N/NC(=O)c2c(Nc3ccccc3)nn(CC(O)c3ccccc3)c2N)cc1 (centres unmarked) [13a, (E)-5-amino-1-(2-hydroxy-2-phenylethyl)-N′-(4-methoxybenzylidene)-3-(phenylamino)-1H-pyrazole-4-carbohydrazide]	94.5%	85.9%	96.4%	91.8%	83.7%	81%	81.8%	93.8%	99.43%	883 ± 39 µM	213 ± 17 µM	–
COc1ccc(/C=N/NC(=O)c2c(N)nn(C)c2Nc2ccccc2)cc1OC [11b, (E)-3-amino-N′-(3,4-dimethoxybenzylidene)-1-methyl-5-(phenylamino)-1H-pyrazole-4-carbohydrazide]	94.8%	116%	85.7%	86%	99.5%	94.8%	93%	100%	104.95%	129 ± 10 µM	113 ± 7 µM	–
COc1ccc(/C=N/NC(=O)c2c(Nc3ccccc3)nn(C)c2N)cc1Oc1ccccc1 [12c, (E)-5-amino-N′-(4-methoxy-3-phenoxybenzylidene)-1-methyl-3-(phenylamino)-1H-pyrazole-4-carbohydrazide]	98.5%	111%	100%	82.1%	85.2%	88.3%	94.6%	104%	104.08%	331 ± 14 µM	193 ± 16 µM	–
CC(=O)Oc1ccccc1C(=O)O [ASA, acetyl salicylic acid, reference compound]	–	–	–	–	–	–	–	–	–	438 µM	–	–
CC(=O)N[C@@H](CS)C(=O)O [NAC, N-acetylcysteine, reference compound]	–	–	–	–	–	–	–	–	–	–	–	IC50 (washed platelets [2]): 872 µM
COc1ccc(/C=N/NC(=O)c2c(Nc3ccccc3)nn(C)c2N)cc1 [12a, (E)-5-amino-N′-(4-methoxybenzylidene)-1-methyl-3-(phenylamino)-1H-pyrazole-4-carbohydrazide]	97.1%	111%	97.9%	95%	94.8%	88.5%	76.2%	102%	100.38%	265 ± 23 µM	113 ± 7 µM	–
